US20030087830A1, “Low molecular weight components of cartilage, complexes of metals with amino acids, DI-peptides and analogs thereof; processes for preparation and therapeutic uses thereof” (priority 2001, published 2003)

Assays:
human dermal fibroblasts = test: Fibroblast proliferation; format: cell-based; settings: 48 hours; free amino acids and Glu-Trp 2.5 mM, CuCl2 1.25 mM
Procedure: (§1) Endothelial and tumor cell proliferation assays were performed to determine the ability of test samples to inhibit endothelial cell proliferation (antiangiogenic activity), normal cell proliferation,and tumor cell proliferation.
(§2) Endothelial cells (Human umbilical vein endothelial cells (HUVEC), bovine aortic endothelial cells (BAEC)), skeletal muscle cells, human dermal fibroblasts (all from Clonetics, Walkersville, Md.) were respectively maintained in EBM-2, MDEM, SKGM and FGFM-2 complete media according to manufacturer's instructions. Tumor rat glioblastoma cell line (C6) was maintained in DMEM (Sigma, Oaksville, Ontario) supplemented with 10% fetal calf serum (FCS) and antibiotics in 5% CO2. Briefly, cells seeded in 96-well sterile tissue culture dishes were treated with increasing concentrations of different test samples for a period of 48 hours at 37° C. Cell number was then evaluated by a calorimetric assay using the cell proliferation reagent tetrazolium salt and the fluorimetric assay using DNA dye (Hoescht) according to the procedure established by the manufacturer (Boehringer Mannhein). The conversion of these tetrazolium salts into formazan occurs only in metabolically active cells. The percentage of cell inhibition was determined by comparison to untreated cells.

[1] = system: Striated muscle cells (skeletal muscle cells); test: Striated muscle cell proliferation; format: cell-based; settings: 48 hours; free amino acids and Glu-Trp 2.5 mM, CuCl2 1.25 mM
Procedure: as §1, §2

C6 glioblastoma cells = test: C6 glioblastoma cell proliferation; format: cell-based, rat; settings: 48 hours; free amino acids and Glu-Trp 2.5 mM, CuCl2 1.25 mM
Procedure: as §1, §2

Endothelial cells [2] = test: Endothelial cell migration assay (VEGF, modified Boyden chamber); format: cell-based
Procedure: The endothelial cell migration assay was performed to determine the ability of test samples to inhibit the chemotaxic activity of vascular endothelial growth factor (VEGF;R/D System, MN) using a modified Boyden chamber (Transwell™, Corning/Costar). Briefly, polyvinylidene difluoride filters (PVDF) were coated with Pronectin F (Biosources, CA), a constituent of basement membrane barrier. Boyden chambers were assembled by adding VEGF to the culture media in the lower chamber (chemoattractant). Endothelial cells suspended in cultured media in the presence or the absence of the test samples were added to the upper chamber. The chambers were then incubated for a period of 4.5 hours at 37° C. At the end of the incubation period, the cells from both side of the PVDF membrane were fixed with 3.7% formaldehyde. Cells from the upper surface of the membrane were mechanically removed, and the cells remaining on the underside of the membrane were stained with crystal violet (0.5%; Sigma). Cells were then carefully rinsed and the dye fixed to the cells was quantified with a microplate reader ([…]) after its solubilization with a solution of 50% citric acid (0.1M) in water and 50% ethanol.

Endothelial cells [3] = test: Endothelial cell tubule formation assay (tubulogenesis); format: cell-based; parameters: key to Tubulogenesis: 0: Numerous capillary-like tube forming pentagonal network; +: Decrease of capillary-like tubes; ++: Dramatic decrease of capillary-like tubes; +++: Absence of capillary-like tubes
Procedure: The endothelial cell tubule formation assay is a semi-quantitative assay that was performed to determine the ability of test samples to inhibit this multi-step process, which involves cell adhesion, migration, differentiation and growth, using a commercial kit (Chemicon). Briefly, endothelial cells were seeded on solid gel of Ecmatrix™ (Chemicon), basement proteins prepared from the Engelbreth Holm-Swarm (EHS) mouse tumor in microplate in a E-99 media (Sigma) supplemented with 5% FBS and VEGF (50 ng/ml) in the presence or absence of the test sample. Cells were incubated for a period of 24 hours at 37° C. Pictures were taken on the entire tissue culture dish using a binocular microscope for further evaluation.

[4] = system: bFGF-stimulated blood vessel formation in Matrigel; test: Matrigel in vivo angiogenesis assay; parameters: species or system C57B1/6 mice; settings: intra-peritoneal daily 10 days
Procedure: The Matrigel™ in vivo assay was performed to determine the ability of test samples to inhibit blood vessel formation (antiangiogenic activity) and to establish their bioavailability in vivo.
Briefly, liquid Matrigel™ (Becton Dickinson, Bedford, Mass.) was maintained at 4° C. and mixed thoroughly for at least 3 hours with 1,500 ng/ml basic fibroblast growth factor (bFGF) (R&D Systems, Minneapolis, Minn.) used as the primary angiogenic stimulus. The mixture (0.5 ml) was injected subcutaneously into the ventral midline of C57B1/6 mice, and treatment with different test samples or saline solution was initiated the same day. Additional animals were also injected with Matrigel™ containing no bFGF to serve as baseline controls. The animals were treated daily for a 10 day period (intra-peritonealy, 0.2 ml of each dose). At day 11, animals were injected with FITC-dextran 20 min prior to euthanizing treated mice. Matrigel™ gels were removed along with underlying peritoneum and prepared for FITC-dextran detection by fluorimetry. The concentration of FITC-dextran in the gels was calculated from a known concentration of FITC-dextran using a standard curve. The FITC-dextran content of the gels from compound-treated animals and controls was expressed as a percent of the positive bFGF-treated controls after the baseline control of FITC-dextran levels were subtracted from all groups.

[5] = system: Lewis lung carcinoma clone M27; test: Lewis Lung Carcinoma metastatic mouse model (LLC); format: in vivo, C57BL/10 female mice; settings: 2.5 mg/kg, intraperitoneal daily for two weeks; lung surface metastases
Source text: The Lewis Lung Carcinoma mouse model (LLC) was used to determine the ability of different test samples to inhibit the formation of metastases within the lung. The Lewis lung carcinoma clone M27, with a high metastatic potential to the lung, was established by Dr P. Brodt (Brodt P, Characterization of two highly metastatic variants of Lewis lung carcinoma with different organ specificities. Cancer Res., 46: 2442, 1986). This model is well established and is known for its predictive correlation between in vitro and in vivo activity. Briefly, LLC cells were transplanted subcutaneously in the axillary region of the right flank of C57BL/10 female mice (Charles River Inc.) When the primary tumor reached a size of 0.5-1.0 cm^3 (day 10 post-inoculation), the tumor was carefully separated from the surrounding healthy tissues. Treatment with different test samples started the day following tumor removal (day 11 post-inoculation). Saline or different test samples were administered daily for two weeks by intraperitoneal injection (0.2 ml of each dose). As previous experiments had shown that a period of approximately two weeks after removal of the primary tumor was sufficient to obtain an average of 30 to 50 nodules on the lung surface, animals were sacrificed in a CO2 chamber two weeks later. Following autopsy, both lungs were removed, weighed and fixed in 10% Bouin's fixative. Lung surface metastases were counted using a stereomicroscope (4×).

- C6 glioblastoma (EC50 (mM)) (C6 glioblastoma cells): Non-active
Substance: L-Asp Cu L-Asp [Compound 6]
- EC50 (human dermal fibroblasts): 1.15 mM
- Striated muscle (EC50 (mM)) [1]: Non-active
- Cell migration activity (in words) (Endothelial cells [2]): important activity
- Migration % of inhibition (Endothelial cells [2]; 1.25 mmole (equivalent copper), VEGF chemoattractant, 4.5 hours): 82% of inhibition
- Cell Migration (% inhibition) (Endothelial cells [2]; copper complexes, concentration not given, VEGF, 4.5 hours): 82%
- Tubulogenesis activity (in words) (Endothelial cells [3]): important activity
- Tubulogenesis (in words) (Endothelial cells [3]; 1.25 mmole (equivalent copper), 24 hours): Decrease of capillary-like tube formation
- Tubulogenesis (Endothelial cells [3]; copper complexes, concentration not given, VEGF 50 ng/ml, 24 hours): +
- Matrigel in vivo % of inhibition ([4]; 0.14 mg/Kg equivalent copper): 27.7% of inhibition
- Matrigel in vivo % of inhibition ([4]; 1.14 mg/Kg equivalent copper): 22.6% of inhbition
- Matrigel in vivo % inhibition ([4]; 1.4 mg/Kg equivalent copper): 22.6%
- Antimetastatic activity (% inhibition) (at 2.5 mg/kg of Cu-complex) [5]: 26.9%
